Assay results from article PMC3536784, “Structural Characterization of Pandoraea pnomenusa B-356 Biphenyl Dioxygenase Reveals Features of Potent Polychlorinated Biphenyl-Degrading Enzymes” (PLoS ONE, 2013).

Key:
[1] = target: T1, BPDOB356 (biphenyl dioxygenase, oxygenase component BphAE) (Comamonas testosteroni, UniProt Q46372, M231T); experiment: O2 consumption, Clark-type oxygen electrode; settings: read-out: 2,2′-Dichlorobiphenyl / Km /; apparent; air-saturated 50 mM MES pH 6.0; NADH 123 µM; BphG B356 and BphF LB400 as electron transfer partners; Fe(II) added; partly uncoupled
T1 construct: gene bphA
T1 sequence (Q46372 whole entry M231T): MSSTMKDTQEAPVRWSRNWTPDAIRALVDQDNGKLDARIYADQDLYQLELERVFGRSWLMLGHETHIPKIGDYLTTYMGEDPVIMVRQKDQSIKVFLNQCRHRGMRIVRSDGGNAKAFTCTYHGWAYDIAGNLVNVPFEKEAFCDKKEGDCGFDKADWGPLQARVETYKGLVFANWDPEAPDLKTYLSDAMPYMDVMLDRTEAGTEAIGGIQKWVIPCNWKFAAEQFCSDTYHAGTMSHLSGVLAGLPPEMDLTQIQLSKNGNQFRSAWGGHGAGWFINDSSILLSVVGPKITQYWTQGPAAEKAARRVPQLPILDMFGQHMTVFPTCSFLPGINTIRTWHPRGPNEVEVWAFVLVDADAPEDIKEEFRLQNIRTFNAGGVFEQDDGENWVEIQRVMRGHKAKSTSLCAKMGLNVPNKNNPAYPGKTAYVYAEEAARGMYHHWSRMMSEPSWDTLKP
T1 sequence (Q46373 whole entry partner): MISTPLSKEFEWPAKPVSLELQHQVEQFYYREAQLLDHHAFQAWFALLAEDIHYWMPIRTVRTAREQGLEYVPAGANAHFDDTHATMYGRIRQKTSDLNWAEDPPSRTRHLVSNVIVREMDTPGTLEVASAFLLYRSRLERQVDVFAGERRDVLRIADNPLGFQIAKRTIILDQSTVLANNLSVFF

[2] = target: T2, BPDOB356 (biphenyl dioxygenase, oxygenase component BphAE) (Comamonas testosteroni, UniProt Q46372); experiment: O2 consumption, Clark-type oxygen electrode; assay type: biochemical; settings: apparent; air-saturated 50 mM MES pH 6.0; NADH 123 µM; BphG B356 and BphF LB400 as electron transfer partners; Fe(II) added; partly uncoupled; read-out: 2,2′-Dichlorobiphenyl / Km /
T2 construct: gene bphA; heterologously produced, purified anaerobically; heterohexamer (alpha-beta)3; Rieske [2Fe-2S] and mononuclear Fe(II); 18 N-terminal alpha residues disordered; with Biphenyl dioxygenase subunit beta
T2 sequence (Q46372 whole entry): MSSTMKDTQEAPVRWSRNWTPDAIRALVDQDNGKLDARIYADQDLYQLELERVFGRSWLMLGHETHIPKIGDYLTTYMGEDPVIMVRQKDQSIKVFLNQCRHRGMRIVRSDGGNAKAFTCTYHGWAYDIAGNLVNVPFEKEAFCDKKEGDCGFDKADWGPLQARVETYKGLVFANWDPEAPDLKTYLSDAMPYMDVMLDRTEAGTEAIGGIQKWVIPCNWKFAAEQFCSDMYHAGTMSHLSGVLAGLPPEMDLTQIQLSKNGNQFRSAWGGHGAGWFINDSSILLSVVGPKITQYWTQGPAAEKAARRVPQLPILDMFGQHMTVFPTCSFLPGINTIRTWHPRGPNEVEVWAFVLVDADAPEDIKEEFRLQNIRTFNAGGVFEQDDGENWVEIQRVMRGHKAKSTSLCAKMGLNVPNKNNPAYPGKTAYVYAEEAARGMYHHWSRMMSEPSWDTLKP
T2 sequence (Q46373 whole entry partner): as the sequence (Q46373 whole entry partner) above
Source text: O2 consumption, Clark-type oxygen electrode on BPDOB356 (biphenyl dioxygenase, oxygenase component BphAE)

[3] = target: T3, BPDOB356 (biphenyl dioxygenase, oxygenase component BphAE) (Comamonas testosteroni, UniProt Q46372, M231A); experiment: O2 consumption, Clark-type oxygen electrode; settings: read-out: 2,2′-Dichlorobiphenyl / Km /; apparent; air-saturated 50 mM MES pH 6.0; NADH 123 µM; BphG B356 and BphF LB400 as electron transfer partners; Fe(II) added; partly uncoupled
T3 construct: gene bphA
T3 sequence (Q46372 whole entry M231A): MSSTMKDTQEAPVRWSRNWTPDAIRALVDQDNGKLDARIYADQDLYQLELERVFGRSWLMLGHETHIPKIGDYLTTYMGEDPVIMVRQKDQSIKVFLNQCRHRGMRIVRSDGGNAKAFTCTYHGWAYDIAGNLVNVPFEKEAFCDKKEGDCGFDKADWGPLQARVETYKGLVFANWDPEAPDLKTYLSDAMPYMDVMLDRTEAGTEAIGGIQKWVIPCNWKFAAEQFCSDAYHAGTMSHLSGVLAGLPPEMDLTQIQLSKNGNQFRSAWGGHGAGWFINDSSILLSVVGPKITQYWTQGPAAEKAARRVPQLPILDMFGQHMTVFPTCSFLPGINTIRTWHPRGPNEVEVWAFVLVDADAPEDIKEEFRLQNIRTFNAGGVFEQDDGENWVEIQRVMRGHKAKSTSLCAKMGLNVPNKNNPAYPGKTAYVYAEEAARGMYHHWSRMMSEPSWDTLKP
T3 sequence (Q46373 whole entry partner): as the sequence (Q46373 whole entry partner) above

[4] = target: T2, BPDOB356 (biphenyl dioxygenase, oxygenase component BphAE); experiment: X-ray crystal structure of complex, […] Å; assay type: binding; settings: biphenyl powder soaked into crystals 24 h, anaerobic; MES pH 6.0; alpha-subunit active site near Fe(II)

| Compound | Km [1] [µM] | Km [2] [µM] | Km [3] [µM] | X-ray crystal structure of complex, 1.6 Å [4] |
| --- | --- | --- | --- | --- |
| Clc1ccccc1-c1ccccc1Cl [2,2′-dichlorobiphenyl] | 6.4 | 1.1 | 5.7 | – |
| c1ccc(-c2ccccc2)cc1 [biphenyl] | – | – | – | 3GZY (BPDOB356) and 3GZX (BPDOB356•biphenyl complex) |
